Measurements taken from patent publication US20080221114A1, “2-(Cyclic Aminocarbonyl) Indoline Derivative and Medicinal Composition Containing the Same” (priority 2005, published 2008).

How the values were obtained:
[1] = target: T1, mitochondrial benzodiazepine receptor (MBR) (Rattus norvegicus, UniProt P16257); test: Binding assay of mitochondrial benzodiazepine receptor (MBR), [3H]4'-chlorodiazepam (Ro5-4864), rat kidney membrane-preparation; conditions: rat kidney membranes, [3H]4'-chlorodiazepam 0.5 nM, 0° C. for 150 minutes
T1 construct: from tissue; host or cells: kidney of male Wistar rats (crude membrane preparation)
Method: The binding assay of central-type benzodiazepine receptor (CBR) and the preparation of receptor membrane-preparation were carried out according to the partially modified method of Braestrup, C. et al. [see; Br. J. Psychiatry, 133, 249-260 (1978)] with a minor modification; the binding assay of mitochondrial benzodiazepine receptor (MBR) and the preparation of receptor membrane-preparation were carried out according to the method of Schoemaker, H [see; J. Pharmacol. Exp. Ther., 225, 61-69 (1983)] with a minor modification.
CBR and MBR membrane-preparations were prepared from forebrain (CBR) and kidney (MBR) of male Wistar strain rats according to the following procedure, respectively.
To the forebrain of rat, 20 volumes of ice-cold 0.32 M sucrose solution to wet-weight of the tissue (1:20, wet-weight/vol) was added and homogenized, and then the homogenate was centrifuged at 900×g for 10 minutes. The supernatant was centrifuged at 11,500×g for 20 minutes, a buffer I for the binding assay (50 mM Tris-hydrochloric acid buffer, pH 7.5) was added to the resultant precipitate, and the mixture was homogenized, and then it was centrifuged at 30,000×g for 10 minutes. The resulting precipitate was washed 3 times according to the same operation, suspended in the buffer I (1 g of wet-weight of tissue/10 ml) and used as a CBR membrane-preparation for the binding assay. The CBR membrane-preparation was stored at −80° C. until use, and on the day of the assay, it was thawed and suspended in the buffer for use. On the other hand, kidney of rat was homogenized in 20 volumes of ice-cold buffer II for the binding assay to wet-weight of the tissue (1:20, wet-weight/vol) (50 mM sodium phosphate-potassium phosphate buffer solution containing 100 mM sodium chloride, pH 7.4), and then filtrated through 4 layers of gauze, and the filtrate was centrifuged at 40,000×g for 20 minutes. The resulting precipitate was suspended in the buffer II (1 g of wet-weight of tissue/50 ml) and used as a MBR membrane-preparation for the binding assay.
As a labeled ligand and a non-labeled ligand, [^3H]flunitrazepam (final concentration: 1 nM) and diazepam (final concentration: 20 μM) were used respectively, for the CBR binding assay, and [^3H]4′-chlorodiazepam (Ro5-4864, chemical name: 7-chloro-1,3-dihydro-1-methyl-5-(4-chloro-phenyl)-2H-1,4-[…]) (final concentration: 0.5 nM) and diazepam (final concentration: 50 μM) were used respectively, for the MBR binding assay. The binding assay of CBR was carried out by incubating at 0° C. for 30 minutes, while that of MBR was at 0° C. for 150 minutes.
The receptor binding assay was carried out in the following procedure. The test compound which the concentration was known, a tritium labeled ligand, a receptor membrane-preparation and the buffer I or II for the binding assay were added to a 96-well microplate in the total volume was 0.2 ml, and when the receptor membrane-preparation was added, the reaction started. After the incubation, the labeled ligand binding to the receptor was filtrated through a filter plate (UNI FILTER-96GF/B, PerkinElmer, the U.S.) using a cell harvester (PerkinElmer, the U.S.) to stop the reaction. The filter was immediately washed 6 times with 0.3 ml of the ice-cold buffer [50 mM Tris-hydrochloric acid buffer (pH 7.7)]. After 30 μl of liquid scintillation cocktail (MICROSCINTI 20, PerkinElmer, the U.S.) was added to each well on the dried filter plate, the radioactivity was measured with a TopCount. The specific binding amount was obtained by subtracting the non-specific binding amount which was simultaneously measured in the presence of non-labeled ligand from the total binding amount. The concentration that the test compound could decrease the specific binding amount of the labeled ligand to 50% of the amount (IC50 value) was analyzed using nonlinear least-squares method.

| IC50 [1] | melting point | SMILES |
| --- | --- | --- |
| 1.19 nM | 183 to 186 °C | C[C@H]1CCCN(C(=O)[C@@H]2Cc3ccccc3N2c2ccc(Cl)nn2)C1 [Example 35] |
| 1.37 nM | 134 to 136 °C | C[C@H]1CCCN(C(=O)[C@@H]2Cc3ccccc3N2c2nccc3ccccc23)C1 [Example 12] |
| 1.66 nM | 156 to 157 °C | C[C@@H]1C[C@H](C)CN(C(=O)[C@@H]2Cc3ccccc3N2c2cnc3ccccc3n2)C1 [Example 27] |
| 0.823 nM | 165 to 166 °C | C[C@H]1CCCN(C(=O)[C@@H]2Cc3ccccc3N2c2nc3ccccc3s2)C1 [Example 14] |
| 4.51 nM | 136 to 139 °C | COc1ccc2c(c1)CC(C(=O)N1CCC[C@H](C)C1)N2c1ccc(Cl)nn1 (some centres unmarked) [Example 69] |
| 1.17 nM | 220 to 222 °C | C[C@@H]1CCCN(C(=O)[C@@H]2Cc3ccccc3N2c2nc3ccccc3o2)C1 [Example 16] |
| 33.8 nM | 248 to 250 °C | COc1ccc2c(c1)CC(C(=O)N1CCCC(C)C1)N2c1ccc(=O)n(C)n1 (racemic) [Example 134] |
| 12.9 nM | 177 to 179 °C | CC1CCCN(C(=O)[C@@H]2Cc3ccccc3N2c2cnccn2)C1 (some centres unmarked) [Example 59] |
| 0.727 nM | 114 to 115 °C | C[C@H]1CCCN(C(=O)[C@@H]2Cc3ccccc3N2c2cccnc2)C1 [Example 32] |
| 10.1 nM | 217 to 219 °C | CC1CCCN(C(=O)C2Cc3cc(F)ccc3N2c2ccc(=O)n(C)n2)C1 (racemic) [Example 132] |
| 0.638 nM | 191 to 193 °C | C[C@H]1CCCN(C(=O)[C@@H]2Cc3ccccc3N2c2nc3ccccc3o2)C1 [Example 17, (S)-1-(1,3-benzoxazol-2-yl)-2-[[(S)-3-methylpiperidin-1-yl]carbonyl]indoline] |
| 3.98 nM | 159 to 163 °C | O=C(C1Cc2ccccc2N1c1ncccn1)N1CCCC(C(F)(F)F)C1 (racemic) [Example 49] |
| 1.88 nM | 158 to 159 °C | Cc1ccc(N2c3ccccc3C[C@H]2C(=O)N2C[C@H](C)C[C@H](C)C2)nn1 [Example 38] |
| 5.58 nM | 155 to 157 °C | CC1CCCN(C(=O)C2Cc3cc(F)ccc3N2c2cccnn2)C1 (racemic) [Example 84] |
| 2.31 nM | 175 to 177 °C | C[C@H]1CCCN(C(=O)[C@@H]2Cc3cc(Cl)ccc3N2c2cccnn2)C1 [Example 91] |
| 3.69 nM | 160 to 162 °C | COc1cccc2c1CC(C(=O)N1CCCC(C)C1)N2c1cccnn1 (racemic) [Example 85] |
| 21.2 nM | 145 to 151 °C | O=C(C1Cc2ccccc2N1c1ncccn1)N1CCCC(c2ccccc2)C1 (racemic) [Example 51] |
| 1.54 nM | 174 to 175 °C | C[C@H]1CCCN(C(=O)[C@@H]2Cc3ccccc3N2c2cnccn2)C1 [Example 60, (S)-2-[(S)-3-methylpiperidin-1-yl]carbonyl-1-(2-pyrazinyl)indoline] |
| 4.04 nM | 183 to 185 °C | CCCn1nc(N2c3ccccc3C[C@H]2C(=O)N2CCC[C@H](C)C2)ccc1=O [Example 130] |
| 2.28 nM | 199 to 201 °C | C[C@@H]1C[C@H](C)CN(C(=O)C2Cc3ccccc3N2c2nc3ccccc3o2)C1 (relative stereo) [Example 5] |
| 28.5 nM | 225 to 227 °C | Cn1nc(N2c3ccccc3C[C@H]2C(=O)N2CCCCC2)ccc1=O [Example 107, (S)-1-(1-methyl-6-oxo-1,6-dihydropyridazin-3-yl)-2-(1-piperidinylcarbonyl)indoline] |

| IC50 [1] | melting point | SMILES |
| --- | --- | --- |
| 123 nM | 149 to 151 °C | O=C(C1Cc2ccccc2N1c1ncccn1)N1CCCCC1 (centres unmarked) [Example 7] |
| 26.8 nM | 191 to 193 °C | C[C@@H]1CCCN(C(=O)[C@@H]2Cc3ccccc3N2c2ccc(=O)n(C)n2)C1 [Example 122] |
| 3.35 nM | 134 to 137 °C | COc1ccc(N2c3ccccc3C[C@H]2C(=O)N2CCC[C@H](C)C2)nn1 [Example 73, (S)-1-(6-Methoxypyridazin-3-yl)-2-[[(S)-3-methylpiperidin-1-yl]carbonyl]indoline] |
| 0.851 nM | 160 to 161 °C | C[C@H]1CCCN(C(=O)[C@@H]2Cc3ccccc3N2c2cnc3ccccc3n2)C1 [Example 26] |
| 92.6 nM | 124 to 128 °C | O=C(C1Cc2ccccc2N1c1ncccn1)N1CCCC(CO)C1 (racemic) [Example 50] |
| 5.72 nM | 176 to 178 °C | C[C@H]1CCCN(C(=O)[C@@H]2Cc3ccccc3N2c2nsc3ccccc23)C1 [Example 28] |
| 2.08 nM | 173 to 175 °C | C[C@@H]1C[C@H](C)CN(C(=O)[C@@H]2Cc3ccccc3N2c2nccc3ccccc23)C1 [Example 13] |
| 5.81 nM | 241 to 242 °C | C[C@H]1CCCN(C(=O)[C@@H]2Cc3cc(Br)ccc3N2c2ccc(=O)n(C)n2)C1 [Example 93] |
| 1.56 nM | 164 to 168 °C | C[C@H]1CCCN(C(=O)C2Cc3cc(F)ccc3N2c2ccc(Cl)nn2)C1 (some centres unmarked) [Example 67] |
| 16.7 nM | 243 to 244 °C | C[C@H]1CCCN(C(=O)[C@@H]2Cc3cc(Cl)ccc3N2c2ccc(=O)n(C)n2)C1 [Example 94] |
| 2.53 nM | 190 to 193 °C | C[C@H]1CCCN(C(=O)[C@@H]2Cc3ccccc3N2c2ccc3nccn3n2)C1 [Example 78] |
| 1.29 nM | 208 to 210 °C | C[C@@H]1C[C@H](C)CN(C(=O)[C@@H]2Cc3ccccc3N2c2ccc([N+](=O)[O-])cn2)C1 [Example 30] |
| 6.54 nM | 161 to 163 °C | C[C@H]1CCCN(C(=O)[C@@H]2Cc3cc(Br)ccc3N2c2cccnn2)C1 [Example 90] |
| 1.46 nM | 170 to 173 °C | C[C@@H]1C[C@H](C)CN(C(=O)[C@@H]2Cc3ccccc3N2c2nc3ccccc3s2)C1 [Example 15] |
| 2.77 nM | 215 to 216 °C | CC(C)Cn1nc(N2c3ccccc3C[C@H]2C(=O)N2CCC[C@H](C)C2)ccc1=O [Example 75] |
| 2.92 nM | 156 to 158 °C | CC1CCCN(C(=O)C2Cc3ccccc3N2c2ncccn2)C1 (centres unmarked) [Example 6] |
| 1.23 nM | 174 to 175 °C | C[C@@H]1C[C@H](C)CN(C(=O)[C@@H]2Cc3ccccc3N2c2cncc(Cl)n2)C1 [Example 21] |
| 3.91 nM | 229 to 230 °C | C[C@H]1CCCN(C(=O)[C@@H]2Cc3ccccc3N2c2ccc(=O)n(CCF)n2)C1 [Example 128, (S)-1-[1-(2-fluoroethyl)-6-oxo-1,6-dihydropyridazin-3-yl]-2-[[(S)-3-methylpiperidin-1-yl]carbonyl]indoline] |
| 1.67 nM | 223 to 226 °C | COc1cccc2c1CC(C(=O)N1CCC[C@H](C)C1)N2c1ccc(Cl)nn1 (some centres unmarked) [Example 68] |
| 1.71 nM | 173 to 175 °C | COc1ccc(N2c3ccccc3C[C@H]2C(=O)N2C[C@H](C)C[C@H](C)C2)nn1 [Example 39] |
| – | 179 to 182 °C | Cn1nc(N2c3ccccc3C[C@H]2C(=O)N2CCCCCCC2)ccc1=O (hydrate or solvate) [Example 119, (S)-1-(1-methyl-6-oxo-1,6-dihydropyridazin-3-yl)-2-[(1-perhydroazocinyl)carbonyl]indoline] |
